Source: ChEMBL document CHEMBL4334442, “Effects of Acetylshikonin on the Infection and Replication of Coxsackievirus A16 in Vitro and in Vivo” (J Nat Prod, 2019)
Active and inactive are the calls of the source. The calls are words filed in the database; no cut-off is given here.

Legend:
Coxsackievirus A16 [1] = assay: Antiviral activity against Coxsackievirus A16 TA271 infected in ICR mouse assessed as reduction in inflammatory cell infiltration in heart at 2 mg/kg, im after 5 days post infection by H and E staining based histopathological analysis; type: functional, organism-based
Coxsackievirus A16 [2] = assay: Antiviral activity against Coxsackievirus A16 TA271 infected in RD cells at replication stage assessed as increase in intracytoplasmic granules at 0.08 uM/L 1 hr post-infection viral inoculum was removed and cells incubated with medium containing compound and measured after 5 hrs by inverted microscopic analysis; type: functional, cell-based
Coxsackievirus A16 [3] = assay: (§1) Antiviral activity against Coxsackievirus A16 TA271 infected in RD cells at replication stage assessed as cell fragmentation at 0.08 uM/L 1 hr post-infection viral inoculum was removed and cells incubated with medium containing compound and measured after 5 hrs by inverted microscopic analysis; type: functional, cell-based
Coxsackievirus A16 [4] = assay: Antiviral activity against Coxsackievirus A16 TA271 infected in ICR mouse assessed as reduction in muscle fiber breakage in heart at 2 mg/kg, im after 5 days post infection by H and E staining based histopathological analysis; type: functional, organism-based
Coxsackievirus A16 [5] = assay: Antiviral activity against Coxsackievirus A16 TA271 infected in ICR mouse assessed as mild alveolar wall thickening in spinal muscle at 2 mg/kg, im after 5 days post infection by H and E staining based histopathological analysis; type: functional, organism-based
Coxsackievirus A16 [6] = assay: Antiviral activity against Coxsackievirus A16 TA271 infected in human RD cells assessed as inhibition of virus-induced cytopathic effect preincubated with viral suspension for 2 hrs followed by cell addition and measured after 24 hrs by CCK-8 assay; type: functional, cell-based
Coxsackievirus A16 [7] = assay: Antiviral activity against Coxsackievirus A16 TA271 infected in ICR mouse assessed as reduction in virus-induced IFN-gamma level at 0.08 uM/L preincubated with viral suspension for 2 hrs followed by intramuscular administration after 3 days post infection by ELISA; type: functional
Coxsackievirus A16 [8] = assay: Antiviral activity against Coxsackievirus A16 TA271 infected in ICR mouse assessed as mild alveolar fibrosis in spinal muscle at 2 mg/kg, im after 5 days post infection by H and E staining based histopathological analysis; type: functional, organism-based
Coxsackievirus A16 [9] = assay: Antiviral activity against Coxsackievirus A16 TA271 infected in RD cells at preinfection stage assessed as cell fragmentation at 0.08 uM/L preincubated with cells for 3 hrs followed by viral infection and measured after 1 hr by inverted microscopic analysis; type: functional, cell-based
Coxsackievirus A16 [10] = assay: Antiviral activity against Coxsackievirus A16 TA271 infected in ICR mouse assessed as reduction in inflammatory cell infiltration in hind limb muscle at 2 mg/kg, im after 5 days post infection by H and E staining based histopathological analysis; type: functional, organism-based
Coxsackievirus A16 [11] = assay: Antiviral activity against Coxsackievirus A16 TA271 infected in ICR mouse assessed as increase in inflammatory cell proliferation in spinal muscles at 0.08 uM/L preincubated with viral suspension for 2 hrs followed by intramuscular administration after 5 days post infection by H and E staining based histopathological analysis; type: functional
[12] = Cytotoxicity against human RD cells assessed as reduction in cell viability after 12 hrs by CCK8 assay; type: cell-based
[13] = Toxicity in ICR mouse infected with Coxsackievirus A16 TA271 assessed as increase in body weight at 0.08 uM/L preincubated with viral suspension for 2 hrs followed by intramuscular administration and measured every day; conditions: in vivo, im
Coxsackievirus A16 [14] = assay: Antiviral activity against Coxsackievirus A16 TA271 infected in ICR mouse assessed as reduction in viral load in hind limb muscle at 2 mg/kg, im after 3 to 5 days post infection by RT-PCR analysis; type: functional, organism-based
Coxsackievirus A16 [15] = assay: Antiviral activity against Coxsackievirus A16 TA271 infected in human RD cells assessed as inhibition of virus-induced cytopathic effect at 0.08 uM/L preincubated with viral suspension for 2 hrs followed by cell addition and measured after 24 hrs by CCK-8 assay relative to control; type: functional; conditions: Enterovirus A
Coxsackievirus A16 [16] = assay: Antiviral activity against Coxsackievirus A16 TA271 infected in ICR mouse assessed as mild alveolar fibrosis in heart at 2 mg/kg, im after 5 days post infection by H and E staining based histopathological analysis; type: functional, organism-based
Coxsackievirus A16 [17] = assay: Antiviral activity against Coxsackievirus A16 TA271 infected in ICR mouse assessed as reduction in viral load in lung at 2 mg/kg, im after 3 to 5 days post infection by RT-PCR analysis; type: functional, organism-based
Coxsackievirus A16 [18] = assay: Antiviral activity against Coxsackievirus A16 TA271 infected in ICR mouse assessed as reduction in virus-induced IL-6 level at 2 mg/kg, im after 3 days post infection by ELISA; type: functional, organism-based
Coxsackievirus A16 [19] = assay: Antiviral activity against Coxsackievirus A16 TA271 infected in RD cells assessed as inhibition of viral adsorption/viral entry by measuring increase in cell viability at 0.08 uM/L after 1 hr by inverted microscopic analysis; type: functional, cell-based
Coxsackievirus A16 [20] = assay: Antiviral activity against Coxsackievirus A16 16038 infected in RD cells assessed as reduction in viral genome copies at 0.08 uM/L preincubated with viral suspension for 2 hrs followed by cell addition and measured at 24 hrs post infection by RT-PCR analysis; type: functional, cell-based
Coxsackievirus A16 [21] = assay: Antiviral activity against Coxsackievirus A16 TA271 infected in ICR mouse assessed as reduction in inflammatory cell infiltration in lung at 2 mg/kg, im after 5 days post infection by H and E staining based histopathological analysis; type: functional, organism-based
Coxsackievirus A16 [22] = assay: Antiviral activity against Coxsackievirus A16 TA271 infected in ICR mouse assessed as effect on virus-induced IL-6 level at 0.08 uM/L preincubated with viral suspension for 2 hrs followed by intramuscular administration after 3 days post infection by ELISA; type: functional
Coxsackievirus A16 [23] = assay: as §1, with “assessed as appearance of cell shrinkage” for “assessed as cell fragmentation”, “of cell shrinkage at 0.08” for “as cell fragmentation at 0.08”; type: functional, cell-based
Coxsackievirus A16 [24] = assay: Antiviral activity against Coxsackievirus A16 TA271 infected in ICR mouse assessed as reduction in lesions in lung at 2 mg/kg, im after 5 days post infection by H and E staining based histopathological analysis; type: functional, organism-based
Coxsackievirus A16 [25] = assay: Antiviral activity against Coxsackievirus A16 TA271 infected in RD cells at preinfection stage assessed as cell detachment at 0.08 uM/L preincubated with cells for 3 hrs followed by viral infection and measured after 1 hr by inverted microscopic analysis; type: functional, cell-based
Coxsackievirus A16 [26] = assay: Antiviral activity against Coxsackievirus A16 TA271 infected in ICR mouse assessed as mouse survival at 0.08 uM/L preincubated with viral suspension for 2 hrs followed by intramuscular administration and measured on day 7 post infection relative to control; type: functional; conditions: Enterovirus A, TA271, im
Coxsackievirus A16 [27] = assay: (§2) Antiviral activity against Coxsackievirus A16 TA271 infected in RD cells at release stage assessed as increase in intracytoplasmic granules at 0.08 uM/L preincubated with cells for 1 hr followed by replacement of fresh medium containing compounds after 5 hrs post infection and further incubated for 16 hrs post infection by inverted microscopic analysis; type: functional, cell-based
Coxsackievirus A16 [28] = assay: Antiviral activity against Coxsackievirus A16 TA271 infected in ICR mouse assessed as mild alveolar fibrosis in lung at 2 mg/kg, im after 5 days post infection by H and E staining based histopathological analysis; type: functional, organism-based
Coxsackievirus A16 [29] = assay: as §2, with “appearance of cell shrinkage” for “increase in intracytoplasmic granules”; type: functional, cell-based
Coxsackievirus A16 [30] = assay: Antiviral activity against Coxsackievirus A16 TA271 infected in ICR mouse assessed as reduction in viral load in lung at 0.08 uM/L preincubated with viral suspension for 2 hrs followed by intramuscular administration after 3 to 5 days post infection by RT-PCR analysis; type: functional

SMILES: CC(=O)OC(CC=C(C)C)C1=CC(=O)c2c(O)ccc(O)c2C1=O (stereo unspecified)
- Activity (Coxsackievirus A16 [1]): Active
- Activity (Coxsackievirus A16 [2]): inactive
- Activity (Coxsackievirus A16 [3]): inactive
- Activity (Coxsackievirus A16 [4]): Active
- Activity (Coxsackievirus A16 [5]): Active
- Activity (Coxsackievirus A16 [6]): Dose-dependent effect
- EC50 (Coxsackievirus A16 [6]; Enterovirus A): 0.04 µM
- Activity (Coxsackievirus A16 [7]): Active
- Activity (Coxsackievirus A16 [8]): Active
- Activity (Coxsackievirus A16 [9]): inactive
- Activity (Coxsackievirus A16 [10]): Active
- Activity (Coxsackievirus A16 [11]): Active
- CC50 at 12 h [12]: 9.4 µM
- Activity [13]: Non-Toxic
- Activity (Coxsackievirus A16 [14]): Active
- inhibition at 0.08 µM (Coxsackievirus A16 [15]): 80%
- Activity (Coxsackievirus A16 [16]): Active
- Activity (Coxsackievirus A16 [17]): Active
- Activity (Coxsackievirus A16 [18]): Active
- inhibition (Coxsackievirus A16 [19]): Active
- Activity (Coxsackievirus A16 [20]): Active
- Activity (Coxsackievirus A16 [21]): Active
- Activity (Coxsackievirus A16 [22]): inactive
- Activity (Coxsackievirus A16 [23]): inactive
- Activity (Coxsackievirus A16 [24]): Active
- Activity (Coxsackievirus A16 [25]): inactive
- survival at 0.08 µM (Coxsackievirus A16 [26]): 70%
- Activity (Coxsackievirus A16 [27]): inactive
- Activity (Coxsackievirus A16 [28]): Active
- Activity (Coxsackievirus A16 [29]): inactive
- Activity (Coxsackievirus A16 [30]): Active
